According to publication PMC4862738 (Biomacromolecules, 2016):

Molecular target: wt-PhaCCs (Chromobacterium sp. USM2, UniProt E1APK1)
Assay: continuous DTNB assay of CoA release, […] nm
Assay type: biochemical
Settings: KPi 100 mM pH 7.8, 30 °C, BSA 0.2 mg/mL, DTNB 0.3 mM, Triton X-100 50 mg/L

`C[C@@H](O)CC(=O)SCCNC(=O)CCNC(=O)[C@H](O)C(C)(C)COP(=O)(O)OP(=O)(O)OC[C@H]1O[C@@H](n2cnc3c(N)ncnc32)[C@H](O)[C@@H]1OP(=O)(O)O` [1a, HBCoA] was tested, and the “continuous DTNB assay of CoA release, 412 nm” value was “addition of BSA would increase SA of PhaCCs with HBCoA”.
